From US4118507A, “Benzodioxincarboxamide lipogenesis inhibitors” (Shell Oil Company, priority 1977, dated 1978)

Key:
[1] = tested on: lipogenesis in swine adipose tissue; test: percent inhibition of lipogenesis from radioactive glucose in pig (swine) adipose tissue slices; format: cell-based; conditions: 100 micrograms per milliliter, 37° C., 2 hours
Excerpt: (§1) The manner in which they cause this effect is not known with certainty; it is believed that they interfere with the synthesis of fatty acids in the tissues. Their effectiveness for this purpose has been ascertained by immersing samples of mammalian liver or adipose tissue in a liquid medium containing radioactive glucose and the test chemical for a period of time, then isolating the lipid from the treated tissue and determining the up-take of the radioactive carbon by means of scintillation counting techniques. These tests were conducted with both liver and adipose tissues, because in some animals the primary site of lipogenesis appears to be liver tissue, while in others it appears to be adipose tissue. The test animals were pigs, sheep, rabbits, cats and dogs.
Described in more detail, the tests were conducted according to the following general procedure:
Tissue slices (200 milligrams for liver; 150 milligrams for adipose tissue) were incubated, at 37° C. for 2 hours with shaking in 3 milliliters of Krebs-Ringer bicarbonate solution containing one-half the normal calcium ion concentration, 60 micromoles of glucose, 0.5 micro-Curie of glucose-U-^14 C, 300 microunits of insulin, and 5% dimethyl sulfoxide (DMSO). The test compounds were added as a solution or suspension in DMSO and were present at a concentration of 100 micrograms per milliliter of the incubation mixture.
The incubation was terminated by addition of 0.25 milliliter of 1 N sulfuric acid. The resulting mixture was extracted with a total of 25 milliliters of chloroform:methanol (2:1, v/v). The extracts were washed according to Folch et al. (J. Biol. Chem., 226, 497-509, (1957)), air dried, and counted in a liquid scintillation counter with 15 milliliters of counting fluid (two parts toluene containing 0.4% w/v New England Nuclear Omnifluor: 1 part Triton X-100). The tests were conducted in triplicate and were accompanied by control tests in which all ingredients,proportions and conditions were the same except that no test compound was included. From the data obtained, the percent inhibition of lipid synthesis by the test compound was calculated in each case.
Compound 1 was tested with respect to all of the indicated animal species. The other three compounds were tested only with respect to the pig.
From these and other tests, it has been established that in pigs there is little lipogenic activity in the liver tissue. From these and other tests, it also has been established that swine adipose tissue utilizes glucose for lipogenesis, and to be the major site of fatty acid synthesis. The data obtained from the tests using adipose tissue and glucose are set out in Table 1, as the percent inhibition of lipogenesis compared to the results obtained in the control tests wherein only the test compound was omitted.

[2] = tested on: glucose incorporation in adipose tissue; test: inhibition of glucose incorporation into lipids in sheep adipose tissue slices; format: cell-based; conditions: 100 micrograms per milliliter, 37° C., 2 hours
Excerpt: as §1
(§2) Described in more detail, the tests were conducted according to the following general procedure: […]
(§3) The incubation was terminated by addition of 0.25 milliliter of 1 N sulfuric acid. […] The extracts were washed according to Folch et al. (J. Biol. Chem., 226, 497-509, (1957)), air dried, and counted in a liquid scintillation counter with 15 milliliters of counting fluid (two parts toluene containing 0.4% w/v New England Nuclear Omnifluor: 1 part Triton X-100). […] From the data obtained, the percent inhibition of lipid synthesis by the test compound was calculated in each case. […]

[3] = tested on: swine adipose tissue lipid synthesis; test: in vivo inhibition of swine adipose tissue lipid synthesis (oral dosing in feed, lipogenesis in biopsy slices); conditions: pigs, approximately 25 milligrams per kilogram per day in feed for seven days
Procedure: Compound 1 also was tested to determine the in vivo inhibition of swine adipose tissue lipid synthesis, as follows: pigs weighing about 20 kilograms were administered a fixed drug dose of approximately 25 milligrams of drug per kilogram of animal body weight per day for seven consecutive days. The drug was formulated to contain 10% w active ingredient and was prepared as coarse granules using 4% w plasdene as the granulating agent and lactose as the carrier. […] The daily drug or placebo dose was added to 1.2 kilograms of swine ration; about one-third of the total was fed at 0800, 1200, and 1600 hours. Biopsy samples were obtained from the dorsal subcutaneous adipose tissue (ca. 1 gram) in the neck region before drug administration, after 7 days of drug administration, and 6 days after withdrawal of drug. Adipose tissue slices were prepared from the biopsy sample, and in vitro lipogenesis was determined with radioactive glucose as substrate. The incubation was similar to that previously described except there was no DMSO or test compound in the flasks.

[4] = tested on: glucose utilization in adipose tissue; test: inhibition of glucose utilization in cat adipose tissue slices; format: cell-based, cats; conditions: 100 micrograms per milliliter, 37° C., 2 hours
Excerpt: as §1, §2, §3

[5] = tested on: glucose incorporation into liver; test: inhibition of glucose incorporation into rabbit liver tissue slices; format: cell-based, rabbits; conditions: 100 micrograms per milliliter, 37° C., 2 hours
Excerpt: as §1, §2, §3

[6] = tested on: lipogenesis from glucose in adipose tissue; test: inhibition of lipogenesis from glucose in dog adipose tissue slices; format: cell-based, dogs; conditions: 100 micrograms per milliliter, 37° C., 2 hours
Excerpt: as §1, §2, §3

[7] = tested on: glucose incorporation into adipose tissue; test: inhibition of glucose incorporation into rabbit adipose tissue slices; format: cell-based, rabbits; conditions: 100 micrograms per milliliter, 37° C., 2 hours
Excerpt: as §1, §2, §3

[8] = tested on: lipogenesis from glucose in the liver; test: inhibition of lipogenesis from glucose in cat liver tissue slices; format: cell-based, cats; conditions: 100 micrograms per milliliter, 37° C., 2 hours
Excerpt: as §1, §2, §3

[9] = tested on: glucose incorporation in the liver; test: inhibition of glucose incorporation into lipids in sheep liver tissue slices; format: cell-based; conditions: 100 micrograms per milliliter, 37° C., 2 hours
Excerpt: as §1, §2, §3

Structure (SMILES): C=CCNC(=O)[C@@H]1Oc2ccccc2O[C@@H]1C (relative stereo) [Compound 4, 2,3-dihydro-3-methyl-N-(2-propenyl)-1,4-benzodioxin-2-carboxamide cis isomer]
- Percent Inhibition of lipogenesis compared to control [1]: 68%

Structure (SMILES): C=CCNC(=O)C1COc2ccccc2O1 (centres unmarked) [Compound 1, 2,3-dihydro-N-(2-propenyl)-1,4-benzodioxin-2-carboxamide]
- inhibition of glucose incorporation in adipose tissue [2]: 50%
- effect on lipogenic rate at day 13, compared to control animals ([3]; biopsy 6 days after withdrawal): had significantly reduced the lipogenic rate at day 13
- effect on lipogenesis at day 7, compared to control animals ([3]; biopsy after 7 days of administration): had not significantly affected lipogenesis at day 7
- inhibition of glucose utilization in adipose tissue [4]: did not inhibit glucose utilization in adipose tissue
- inhibition of glucose incorporation into liver [5]: 32%
- inhibition of lipogenesis from glucose in adipose tissue [6]: 54%
- inhibition of glucose incorporation into adipose tissue [7]: 30%
- inhibition of lipogenesis from glucose in the liver [8]: 35%
- inhibition of glucose incorporation in the liver [9]: 27%
- Percent Inhibition of lipogenesis compared to control [1]: 75%

Structure (SMILES): C=CCNC(=O)C1(C)COc2ccccc2O1 (centres unmarked) [Compound 2, 2,3-dihydro-N-(2-propenyl)-2-methyl-1,4-benzodioxin-2-carboxamide]
- Percent Inhibition of lipogenesis compared to control [1]: 41%

Structure (SMILES): C=CCNC(=O)C1COc2cc(Cl)ccc2O1 (centres unmarked) [Compound 3A, 6-chloro-2,3-dihydro-N-(2-propenyl)-1,4-benzodioxin-2-carboxamide]
- Percent Inhibition of lipogenesis compared to control [1]: 38%

Structure (SMILES): C=CCNC(=O)C1COc2cc(C(C)(C)C)ccc2O1 (centres unmarked) [Compound 5, 6-(1,1-dimethylethyl)-2,3-dihydro-N-(2-propenyl)-1,4-benzodioxin-2-carboxamide]
- Percent Inhibition of lipogenesis compared to control [1]: 36%

Structure (SMILES): C=CCNC(=O)C1COc2cc(C)ccc2O1 (centres unmarked) [Compound 6, 2,3-dihydro-6-methyl-N-(2-propenyl)-1,4-benzodioxin-2-carboxamide]
- Percent Inhibition of lipogenesis compared to control [1]: 80%

Structure (SMILES): C=CCNC(=O)C1COc2ccc(C)cc2O1 (centres unmarked) [Compound 7]
- Percent Inhibition of lipogenesis compared to control [1]: 55%

Structure (SMILES): C=CCNC(=O)C1COc2ccc(F)cc2O1 (centres unmarked) [Compound 8, 7-fluoro-2,3-dihydro-N-(2-propenyl)-1,4-benzodioxin-2-carboxamides]
- Percent Inhibition of lipogenesis compared to control [1]: 72%
